The source of these data is patent US20050272682A1, “SiRNA targeting PI3K signal transduction pathway and siRNA-based therapy” (priority 2004, published 2005).

Common to all, as to assay type: cell-based, human
One data set relates to PI3K/Akt pathway. The data set is described as follows: Western blot and immunofluorescence of Akt1, p85α and pAkt in transfected KM20 cells. The method, then: (§1) Cell culture transfection was carried out with siPORT™ Amine transfection agent according to the manufacturer's protocol. Three days after transfection with the siRNA duplexes, cells were harvested and protein expression was assessed by Western blot.
(§2) Western immunoblot analyses were performed as described previously (Wang, et al., 2000). Cells were lysed with TNN buffer at 4° C. for 30 min. Lysates were clarified by centrifugation (10,000×g for 30 min at 4° C.) and protein concentrations determined using the method of Bradford (1976). Briefly, total protein (100 μg) was resolved on a 10% polyacrylamide gel and transferred to Immobilon-P […] membranes. Filters were incubated overnight at 4° C. in blotting solution (Tris-buffered saline containing 5% nonfat dried milk and 0.1% Tween 20), followed by a 1-h incubation with primary antibodies. Filters were washed three times in a blocking solution and incubated with horseradish peroxidase-conjugated secondary antibodies for 1 h. After three additional washes, the immune complexes were visualized by ECL detection.
KM20 cells were seeded onto sterile glass coverslips in 60 mm dishes and cultured for 16-24 h before treatment. Cells were transfected with pik3r1 or Akt1 or scrambled (control) siRNA sequences. At 96 h posttransfection, cells were washed in PBS, fixed in cold methanol for 5 min, and washed in three changes of PBS followed by a solution of 10% normal goat serum. After washing, cells were then incubated with the primary antibody (diluted in PBS with 1.5% normal goat serum) for 60 min. […] After three final washes, the slides were viewed with a fluorescence microscope.
It is speculated that siRNA directed to PI3K/Akt pathway components would inhibit cell growth and induce apoptosis in human colorectal cancer cell lines. […] In view of evidence that Akt plays a critical role in the prosurvival properties of PI3K (Nichol son, et al., 2002), activation of Akt in pik3r1 and Akt1 siRNA treated cells was then analyzed by Western blot and immunofluorescent analysis using a phospho-specific Ser473 Akt antibody.

The subject of another data set is KM20 cells. The data set is described as follows: Western blot of apoptosis-related proteins, KM20 cells. The method, then:
as §1, §2

Data set [1] has as its system KM12C cells. The data set is described as follows: Western blot of apoptosis-related proteins, KM12C cells. On the procedure:
as §1, §2
In general terms: Immunoblotting shows a protein as a band on a membrane.

Data set [2] relates to KM12C cells. The data set is described as follows: Ribonuclease protection assay, KM12C cells. The method, then:
Cells were treated with pik3r1 and Akt1 siRNA and harvested 72 h later. RNA was isolated from cells using TRIzol® RNA reagent according to the manufacturer's protocol. A multiprobe template set (hAPO3c), which assesses expression of caspase 8, FASL, FAS, DR3, Decoy receptor 1 (DcR1), DR4, DR5, TRAIL, TNFR p55, TRADD and the housekeeping genes GAPDH and L32, as well as the Human Apoptosis hAPO-2b and hAPO-2c Template Set were labeled using Ambion T7 MAXIscript. The Ambion RPA III kit was then utilized to hybridize the RNA from the samples with the labeled probes. After RNAse treatment of hybridized samples, protected products were resolved on a 5% acrylamide gel, adsorbed onto filter paper, and exposed to Kodak BioMax MR film in a cassette at −70° C. and analyzed as previously described (Wang, et al., 2000).

Data set [3] deals with KM12C cells. In words: MTT assay, KM12C cells. The note with it: KM12C cells at 96, 120 and 144 h after transfection. On the procedure: Cells were transfected with pik3r1, Akt1 or scrambled siRNA at a density of 2×10^5 cells/well in 12 well plates. After 24 h, adherent cells were detached by rapid trypsinization, counted in a Hausser chamber and replated into 96 well plates at a concentration of 2×10^3 cells/well. […]

The mark [4] stands for this setting: siRNA in combination with TRAIL.

Entries after “also recorded” stand apart in the source; their conditions may differ.

In the case of “pik3r1 siRNA: siRNA to human pik3r1 (p85α) used in KM20/KM12C cells and xenografts; SEQ ID NO:24 vs. SEQ ID NO:25 (chain 1 GAAUAUACCCGCACAUCCCUU; chain 2 GGGAUGUGCGGGUAUAUUCUU; listed as RNA, chemistry not given here)”, the “pAkt expression (immunofluorescent analysis)” value in the data set with PI3K/Akt pathway (96 h posttransfection, compared with scrambled sequences) is on record as “suppression”. In the data set with PI3K/Akt pathway (Western blot, 72, 96 and 120 h after transfection in Example 19), the p85α protein levels result is on record as “reduced; also recorded: decreased”. Also, the pAkt expression levels entry with PI3K/Akt pathway (Western blot, phospho-Ser473 Akt antibody) is given as “suppressed; also recorded: decreased”. Also, in the data set on KM20 cells, the Bax protein expression result is reported as “increased”, the Bcl-2 protein expression result is recorded as “decreased”, the Bcl-xL protein expression result was “decreased” and the “caspase-9 activation (35 kDa large active subunit)” value is given as “activation”. Further, in the data set on KM20 cells, the “cytochrome C release” value is listed as “induced” and the “protein expression for DR4/DR5” value is “increased”. In addition, in the data set on KM20 cells (setting [4]), the BID cleavage result is reported as “BID cleavage” and the caspase-8 activation result is recorded as “activated”. In addition, in the data set with KM20 cells (siRNA in combination with TRAIL compared with TRAIL alone), the “cleavage of pro-caspase-3” value was “enhanced”. Further, in the data set on KM12C cells [1], the Bax protein expression entry was “increased”, the Bcl-2 protein expression entry is “decreased”, the Bcl-xL protein expression entry was “decreased” and the “caspase-9 activation (35 kDa large active subunit)” value is “activation”. For the same substance, the “cytochrome C release” value in the data set with KM12C cells [1] was “induced”. For the same substance, in the data set with KM12C cells [2], the “Bcl-w mRNA expression” value is reported as “decreased” and the “Bcl-x (L, S) mRNA expression” value is on record as “decreased”. Besides, the “cell viability (MTT)” value in the data set with KM12C cells [3] is reported as “significantly decreased”.
